Assay results: patent US20240116985A1, “STAPLED PEPTIDES AND METHODS THEREOF” (priority 2020, published 2024)
Converted amounts (≈) assume the structure as drawn. Like-named read-outs stand apart in the source and are kept apart here.

How the values were obtained:
[1] = biological target: T1, full-length beta-Catenin (Uniprot ID P35222) (Homo sapiens, UniProt P35222); experiment: Fluorescence polarization IC50 (beta-catenin / 5FAM-TCF4 10-53 competition); format: binding; details: fluorescence polarization; read-out: beta-Catenin FP IC50
T1 construct: 10 nM full-length beta-Catenin (Uniprot ID P35222)
T1 sequence (P35222 1-781): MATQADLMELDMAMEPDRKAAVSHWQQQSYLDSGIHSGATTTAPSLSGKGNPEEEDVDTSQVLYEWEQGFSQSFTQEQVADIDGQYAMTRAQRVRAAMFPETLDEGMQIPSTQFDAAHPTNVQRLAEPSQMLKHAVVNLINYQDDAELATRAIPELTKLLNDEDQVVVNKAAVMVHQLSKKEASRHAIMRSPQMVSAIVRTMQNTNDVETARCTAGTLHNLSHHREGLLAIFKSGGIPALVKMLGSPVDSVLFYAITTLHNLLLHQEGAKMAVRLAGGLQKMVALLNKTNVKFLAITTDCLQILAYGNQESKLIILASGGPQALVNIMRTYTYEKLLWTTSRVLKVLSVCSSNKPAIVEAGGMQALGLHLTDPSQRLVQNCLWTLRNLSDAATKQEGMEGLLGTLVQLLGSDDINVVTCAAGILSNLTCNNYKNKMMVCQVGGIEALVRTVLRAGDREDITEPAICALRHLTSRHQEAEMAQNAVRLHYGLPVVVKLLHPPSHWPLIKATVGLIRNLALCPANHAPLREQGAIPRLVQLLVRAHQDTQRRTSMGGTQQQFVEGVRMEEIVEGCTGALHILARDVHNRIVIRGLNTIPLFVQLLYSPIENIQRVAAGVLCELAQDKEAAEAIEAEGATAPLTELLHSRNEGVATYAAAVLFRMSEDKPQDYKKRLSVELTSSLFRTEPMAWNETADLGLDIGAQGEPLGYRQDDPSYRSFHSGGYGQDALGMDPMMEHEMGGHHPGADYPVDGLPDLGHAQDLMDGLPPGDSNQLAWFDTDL

Solubility in PBS = format: physicochemical
Summary of the method: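 PBS sample ultracentrifuged; supernatant run on HPLC vs. 50 μM peptide in DMSO standard. Solubility = (PBS peak area / DMSO peak area) × 50 uM.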

[2] = biological target: T2, beta-catenin/TCF4 engagement (Homo sapiens, UniProt P35222); experiment: Nano-BRET target engagement assay (B-cat-Halo & TCF4-Luc in HEK293 cells); format: cell-based; details: absolute IC50; read-out: NanoBRET Abs IC50
T2 construct: expressed in transfected cells; host or cells: HEK293
T2 sequence (P35222 1-781): T1 sequence (P35222 1-781)

Compound	IC50 [1] [nM]	Solubility (Solubility in PBS) [µM]	IC50 [2] [nM]	Solubility (Solubility in PBS; Solubility (uM)) [µM]
CC(=O)N1CCC[C@]12CC=CCCCC1(CCCC=CCCCOC(=O)N3CC[C@@](C(=O)N[C@@H](Cc4ccsc4)C(=O)N[C@@H](Cc4csc5ccccc45)C(=O)N[C@H](CO)[C@@H](C)O)(C3)NC(=O)[C@H](Cc3ccc(C(F)(F)F)cc3)NC(=O)[C@H](Cc3ccccc3)NC(=O)[C@H](C)NC(=O)[C@H](C)NC(=O)[C@H](CC(=O)O)NC(=O)[C@H](CC(=O)O)NC1=O)NC(=O)[C@H](CC(C)(C)C)NC(=O)[C@H](CC(=O)O)NC2=O (stereo partly drawn) [I-1372, Ac-PL3-Asp-Npg-B5-Asp-Asp-Ala-Ala-Phe-4F3MeF-PyrS2-3Thi-BztA-Thro1]	29	10 (≈ 19.8 µg/mL)	10200	
CC(=O)N1CCC[C@]12CC=CCCCC1(CCCC=CCCCOC(=O)N3CC[C@@](C(=O)N[C@@H](Cc4ccccc4Cl)C(=O)N[C@@H](Cc4csc5ccccc45)C(=O)N[C@@H](CC(C)C)C(N)=O)(C3)NC(=O)[C@H](CCCCNC(C)C)NC(=O)[C@H](Cc3ccccc3)NC(=O)[C@H](C)NC(=O)[C@H](C)NC(=O)[C@H](CCC(=O)O)NC(=O)[C@H](CC(=O)O)NC1=O)NC(=O)[C@H](CC(C)(C)C)NC(=O)[C@H](CC(=O)O)NC2=O (stereo partly drawn) [I-1283, Ac-PL3-Asp-Npg-B5-Asp-Glu-Ala-Ala-Phe-iPrLys-PyrS2-2C1F-BztA-Leu-NH2]	26	10 (≈ 20 µg/mL)	38600	
CC(=O)N1CCC[C@]12CC=CCCCC1(CCCC=CCCCOC(=O)N3CC[C@@](C(=O)N[C@@H](Cc4ccccc4Cl)C(=O)N[C@@H](Cc4csc5ccccc45)C(=O)N[C@@H](C(N)=O)[C@H](C)O)(C3)NC(=O)[C@H](CC(C)C)NC(=O)[C@H](Cc3ccccc3)NC(=O)[C@H](C)NC(=O)[C@H](C)NC(=O)[C@H](CC(=O)O)NC(=O)[C@H](CC(=O)O)NC1=O)NC(=O)[C@H](CC1CCCCC1)NC(=O)[C@H](CC(=O)O)NC2=O (stereo partly drawn) [I-1140, Ac-PL3-Asp-Cha-B5-Asp-Asp-Ala-Ala-Phe-Leu-PyrS2-2C1F-BztA-dThr-NH2]	33	10 (≈ 19.4 µg/mL)	32500	
CC(=O)N1CCC[C@]12CC=CCCCC1(CCCC=CCCCOC(=O)N3CC[C@@](C(=O)N[C@@H](Cc4ccsc4)C(=O)N[C@@H](Cc4csc5ccccc45)C(=O)N[C@@H](CCC(N)=O)C(N)=O)(C3)NC(=O)[C@H](CC(C)C)NC(=O)[C@H](Cc3cccc(C#N)c3)NC(=O)[C@H](C)NC(=O)[C@H](C)NC(=O)[C@H](CC(=O)O)NC(=O)[C@H](CC(=O)O)NC1=O)NC(=O)[C@H](CC(C)(C)C)NC(=O)[C@H](CC(=O)O)NC2=O (stereo partly drawn) [I-1201, Ac-PL3-Asp-Npg-B5-Asp-Asp-Ala-Ala-3CNF-Leu-PyrS2-3Thi-BztA-Gln-NH2]	13		19600	47 (≈ 91.3 µg/mL)
CC(=O)N1CCC[C@]12CC=CCCCC1(CCCC=CCCCOC(=O)N3CC[C@@](C(=O)N[C@@H](Cc4ccccc4Cl)C(=O)N[C@@H](Cc4csc5ccccc45)C(=O)N[C@@H](CCC(N)=O)C(N)=O)(C3)NC(=O)[C@H](Cc3ccc(C(F)(F)F)cc3)NC(=O)[C@H](Cc3ccccc3)NC(=O)[C@H](C)NC(=O)[C@H](C)NC(=O)[C@H](CC(=O)O)NC(=O)[C@H](CC(=O)O)NC1=O)NC(=O)[C@H](CC(C)(C)C)NC(=O)[C@H](CC(=O)O)NC2=O (stereo partly drawn) [I-1369, Ac-PL3-Asp-Npg-B5-Asp-Asp-Ala-Ala-Phe-4F3MeF-PyrS2-2C1F-BztA-Gln-NH2]	29	10 (≈ 20.5 µg/mL)	9900	
CC(=O)N1CCC[C@]12CC=CCCCC1(CCCC=CCCCOC(=O)N3CC[C@@](C(=O)N[C@@H](Cc4ccsc4)C(=O)N[C@@H](Cc4csc5ccccc45)C(=O)N[C@@H](CCC(N)=O)C(N)=O)(C3)NC(=O)[C@H](CC(C)C)NC(=O)[C@H](Cc3ccccc3)NC(=O)[C@H](C)NC(=O)[C@H](C)NC(=O)[C@H]([C@@H](C)O)NC(=O)[C@H](CC(=O)O)NC1=O)NC(=O)[C@H](CC(C)(C)C)NC(=O)[C@H](CC(=O)O)NC2=O (stereo partly drawn) [I-1167, Ac-PL3-Asp-Npg-B5-Asp-Thr-Ala-Ala-Phe-Leu-PyrS2-3Thi-BztA-Gln-NH2]	34	10 (≈ 19 µg/mL)	11700	
CC(=O)N1CCC[C@]12CC=CCCCC1(CCCC=CCCCOC(=O)N3CC[C@@](C(=O)N[C@@H](Cc4ccsc4)C(=O)N[C@@H](Cc4csc5ccccc45)C(=O)N[C@H](CO)[C@@H](C)O)(C3)NC(=O)[C@H](Cc3ccccc3)NC(=O)[C@H](Cc3ccccc3)NC(=O)[C@H](C)NC(=O)[C@H](C)NC(=O)[C@H](CC(=O)O)NC(=O)[C@H](CC(=O)O)NC1=O)NC(=O)[C@H](CC(C)(C)C)NC(=O)[C@H](CC(=O)O)NC2=O (stereo partly drawn) [I-1303, Ac-PL3-Asp-Npg-B5-Asp-Asp-Ala-Ala-Phe-Phe-PyrS2-3Thi-BztA-Thro1]	86		9100	28 (≈ 53.5 µg/mL)
CC(=O)N1CCC[C@]12CC=CCCCC1(CCCC=CCCCOC(=O)N3CC[C@@](C(=O)N[C@@H](Cc4ccsc4)C(=O)N[C@@H](Cc4csc5ccccc45)C(=O)N[C@@H](CCC(N)=O)C(N)=O)(C3)NC(=O)[C@H](Cc3cccc(C(F)(F)F)c3)NC(=O)[C@H](Cc3ccccc3)NC(=O)[C@H](C)NC(=O)[C@H](C)NC(=O)[C@H](CC(=O)O)NC(=O)[C@H](CC(=O)O)NC1=O)NC(=O)[C@H](CC(C)(C)C)NC(=O)[C@H](CC(=O)O)NC2=O (stereo partly drawn) [I-1364, Ac-PL3-Asp-Npg-B5-Asp-Asp-Ala-Ala-Phe-3F3MeF-PyrS2-3Thi-BztA-Gln-NH2]	9		10500	17 (≈ 34.3 µg/mL)
CC(=O)N1CCC[C@]12CC=CCCCC1(CCCC=CCCCOC(=O)N3CC[C@@](C(=O)N[C@@H](Cc4ccccc4Cl)C(=O)N[C@@H](Cc4csc5ccccc45)C(=O)N[C@@H](CCC(N)=O)C(N)=O)(C3)NC(=O)[C@H](Cc3ccccc3C(F)(F)F)NC(=O)[C@H](Cc3ccccc3)NC(=O)[C@H](C)NC(=O)[C@H](C)NC(=O)[C@H](CC(=O)O)NC(=O)[C@H](CC(=O)O)NC1=O)NC(=O)[C@H](CC(C)(C)C)NC(=O)[C@H](CC(=O)O)NC2=O (stereo partly drawn) [I-1367, Ac-PL3-Asp-Npg-B5-Asp-Asp-Ala-Ala-Phe-2F3MeF-PyrS2-2C1F-BztA-Gln-NH2]	31	10 (≈ 20.5 µg/mL)	7800	
CC(=O)N1CCC[C@]12CC=CCCCC1(CCCC=CCCCOC(=O)N3CC[C@@](C(=O)N[C@@H](Cc4ccccc4Cl)C(=O)N[C@@H](Cc4csc5ccccc45)C(=O)N[C@@H](CO)C(N)=O)(C3)NC(=O)[C@H]([C@@H](C)O)NC(=O)[C@H](Cc3ccccc3)NC(=O)[C@H](CC(C)C)NC(=O)[C@H](C)NC(=O)[C@H](CC(=O)O)NC(=O)[C@H](CC(=O)O)NC1=O)NC(=O)[C@H](CC1CCCCC1)NC(=O)[C@H](CC(=O)O)NC2=O (stereo partly drawn) [I-1151, Ac-PL3-Asp-Cha-B5-Asp-Asp-Ala-Leu-Phe-Thr-PyrS2-2C1F-BztA-Ser-NH2]	30	10 (≈ 19.6 µg/mL)	25300	
CC(=O)N1CCC[C@]12CC=CCCCC1(CCCC=CCCCOC(=O)N3CC[C@@](C(=O)N[C@@H](Cc4ccsc4)C(=O)N[C@@H](Cc4csc5ccccc45)C(=O)N[C@@H](CCC(N)=O)C(N)=O)(C3)NC(=O)[C@H](Cc3ccccc3C(F)(F)F)NC(=O)[C@H](Cc3ccccc3)NC(=O)[C@H](C)NC(=O)[C@H](C)NC(=O)[C@H](CC(=O)O)NC(=O)[C@H](CC(=O)O)NC1=O)NC(=O)[C@H](CC(C)(C)C)NC(=O)[C@H](CC(=O)O)NC2=O (stereo partly drawn) [I-1363, Ac-PL3-Asp-Npg-B5-Asp-Asp-Ala-Ala-Phe-2F3MeF-PyrS2-3Thi-BztA-Gln-NH2]	9		5500	12 (≈ 24.2 µg/mL)
CC(=O)N1CCC[C@]12CC=CCCCC1(CCCC=CCCCOC(=O)N3CC[C@@](C(=O)N[C@@H](Cc4ccccc4)C(=O)N[C@@H](Cc4csc5ccccc45)C(=O)N[C@@H](CO)C(N)=O)(C3)NC(=O)[C@H]([C@@H](C)O)NC(=O)[C@H](Cc3ccccc3)NC(=O)[C@H](C)NC(=O)[C@H](C)NC(=O)[C@H]([C@@H](C)O)NC(=O)[C@H](CC(=O)O)NC1=O)NC(=O)[C@H](CC(C)(C)C)NC(=O)[C@H](CC(=O)O)NC2=O (stereo partly drawn) [I-1263, Ac-PL3-Asp-Npg-B5-Asp-Thr-Ala-Ala-Phe-Thr-PyrS2-Phe-BztA-Ser-NH2]	43		20000	12 (≈ 22.1 µg/mL)
CC(=O)N1CCC[C@]12CC=CCCCC1(CCCC=CCCCOC(=O)N3CC[C@@](C(=O)N[C@@H](Cc4ccccc4)C(=O)N[C@@H](Cc4csc5ccccc45)C(=O)N[C@@H](CO)C(N)=O)(C3)NC(=O)[C@H]([C@@H](C)O)NC(=O)[C@H](Cc3ccccc3)NC(=O)[C@H](CC(C)C)NC(=O)[C@H](C)NC(=O)[C@H]([C@@H](C)O)NC(=O)[C@H](CC(=O)O)NC1=O)NC(=O)[C@H](CC(C)(C)C)NC(=O)[C@H](CC(=O)O)NC2=O (stereo partly drawn) [I-1265, Ac-PL3-Asp-Npg-B5-Asp-Thr-Ala-Leu-Phe-Thr-PyrS2-Phe-BztA-Ser-NH2]	152	10 (≈ 18.9 µg/mL)	22700	
